From patent publication US6093730A, “Substituted isoquinoline-3-carboxamides, their preparation and their use as pharmaceuticals” (Hoechst Marion Roussel Deutschland GmbH, priority 1997, dated 2000)

tested on: hydroxyproline formation; test: Carbon tetrachloride-induced liver fibrosis model in rats, inhibition of hydroxyproline formation; assay type: in vivo, rat; conditions: 20 mg/kg (total), intraperitoneal twice per day, two weeks with CCl4
Protocol: The antifibrotic action was determined in the model of carbon tetrachloride-induced liver fibrosis. For this, rats were treated twice weekly with CCl4 (1 ml/kg) dissolved in olive oil. The test substance was administered daily, if appropriate even twice daily, orally or intraperitoneally dissolved in a suitable compatible solvent. The extent of the liver fibrosis was determined histologically and the proportion of collagen in the liver was analyzed by hydroxyproline determination as described in Kivirikko et al., ANAL. BIOCHEM. […] The fibrogenesis activity was determined by radioimmunological determination of collagen fragments and procollagen peptides in the serum.
The measurement of the inhibition of hydroxyproline formation by the test substances was based on this level.
Here the experimental animals were treated for two weeks only with carbon tetrachloride, then for the next two weeks with carbon tetrachloride and test substance. The test substances were administered intraperitoneally twice per day in the total amount indicated below in Table II,

SMILES	Change in hydroxyproline formation [%]
CC(C)Oc1ccc2c(O)c(C(=O)NCC(=O)O)nc(Cl)c2c1 [Example 1, N-((1-Chloro-4-hydroxy-7-(2-propyloxy)isoquinolin-3-yl)carbonyl)glycine]	-55

target: T1, prolyl-4-hydroxylase (Gallus gallus, UniProt P16924); test: Inhibition of prolyl-4-hydroxylase (Table I); assay type: biochemical; conditions: Table I; read-out: IC50
T1 sequence (P16924 1-516): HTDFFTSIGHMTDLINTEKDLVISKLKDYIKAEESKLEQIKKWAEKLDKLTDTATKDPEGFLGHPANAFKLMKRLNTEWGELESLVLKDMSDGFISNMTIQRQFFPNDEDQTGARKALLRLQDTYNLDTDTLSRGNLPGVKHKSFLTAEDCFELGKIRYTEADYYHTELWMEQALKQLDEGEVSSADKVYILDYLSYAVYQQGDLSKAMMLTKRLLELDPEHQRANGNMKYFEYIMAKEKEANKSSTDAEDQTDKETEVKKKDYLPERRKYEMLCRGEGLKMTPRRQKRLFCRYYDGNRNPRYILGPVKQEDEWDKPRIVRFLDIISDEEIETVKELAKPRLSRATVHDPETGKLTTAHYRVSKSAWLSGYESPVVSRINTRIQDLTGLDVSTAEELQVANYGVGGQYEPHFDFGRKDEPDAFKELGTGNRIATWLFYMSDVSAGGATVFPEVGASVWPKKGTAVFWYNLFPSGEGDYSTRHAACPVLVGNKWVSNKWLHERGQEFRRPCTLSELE
T1 sequence (P09102 23-515 partner): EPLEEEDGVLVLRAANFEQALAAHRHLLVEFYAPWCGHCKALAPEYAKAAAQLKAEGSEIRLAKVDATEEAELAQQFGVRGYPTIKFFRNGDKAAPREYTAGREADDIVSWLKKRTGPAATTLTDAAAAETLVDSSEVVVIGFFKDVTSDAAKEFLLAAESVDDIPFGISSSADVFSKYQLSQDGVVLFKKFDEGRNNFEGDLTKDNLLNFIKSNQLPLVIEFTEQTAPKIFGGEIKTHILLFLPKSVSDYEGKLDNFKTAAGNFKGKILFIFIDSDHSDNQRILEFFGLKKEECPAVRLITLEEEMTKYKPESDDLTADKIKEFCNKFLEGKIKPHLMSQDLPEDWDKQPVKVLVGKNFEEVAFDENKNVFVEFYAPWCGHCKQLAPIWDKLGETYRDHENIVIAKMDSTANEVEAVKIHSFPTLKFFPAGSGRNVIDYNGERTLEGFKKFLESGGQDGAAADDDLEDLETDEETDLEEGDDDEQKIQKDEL
Protocol: The inhibition of this enzyme was determined as described by Kaule and Gunzler, ANAL. BIOCHEM.

IC50 [nM]	SMILES
700	CCCCOc1ccc2c(O)c(C(=O)NCC(=O)O)nc(Cl)c2c1 [Example 5, N-((7-(1-Butyloxy)-1-chloro-4-hydroxyisoquinolin-3-yl)carbonyl)glycine]
350	CCCCOc1ccc2cnc(C(=O)NCC(=O)O)c(O)c2c1 [Example 14, N-((6-(1-Butyloxy)-4-hydroxyisoquinolin-3-yl)carbonyl)glycine]
660	O=C(O)CNC(=O)c1ncc2c(Cl)cccc2c1O [Example 11, N-((8-Chloro-4-hydroxyisoquinolin-3-yl)carbonyl)glycine]
120	CC(C)Oc1ccc2c(O)c(C(=O)NCC(=O)O)nc(Cl)c2c1 [Example 1, N-((1-Chloro-4-hydroxy-7-(2-propyloxy)isoquinolin-3-yl)carbonyl)glycine]
9300	CCCCOc1ccc2c(O)c(C(=O)NCC(=O)O)ncc2c1 [Example 13, N-((7-(1-Butyloxy)-4-hydroxyisoquinolin-3-yl)carbonyl)glycine]
650	COc1cccc2c(O)c(C(=O)NCC(=O)O)ncc12 [Example 12, N-((4-Hydroxy-8-methoxyisoquinolin-3-yl)carbonyl)glycine]
1340	O=C(O)CNC(=O)c1nc(Cl)c2ccc(OCc3ccccc3)cc2c1O [Example 7, N-((6-Benzyloxy-1-chloro-4-hydroxyisoquinolin-3-yl)carbonyl)glycine]
790	COc1ccc2c(O)c(C(=O)NCC(=O)O)nc(Cl)c2c1 [Example 3, N-((1-Chloro-4-hydroxy-7-methoxyisoquinolin-3-yl)carbonyl)glycine]
570	COc1ccc2c(Cl)nc(C(=O)NCC(=O)O)c(O)c2c1 [Example 4, N-((1-Chloro-4-hydroxy-6-methoxyisoquinolin-3-yl)carbonyl)glycine]
3600	O=C(O)CNC(=O)c1nc(Cl)c2cc(Cl)c(Cl)cc2c1O [Example 10, N-((1,6,7-Trichloro-4-hydroxyisoquinolin-3-yl)carbonyl)glycine]
1900	CC(C)Oc1ccc2c(Cl)nc(C(=O)NCC(=O)O)c(O)c2c1 [Example 2, N-((1-Chloro-4-hydroxy-6-(2-propyloxy)isoquinolin-3-yl)carbonyl)glycine]
620	O=C(O)CNC(=O)c1nc(Cl)c2cc(OCc3ccccc3)ccc2c1O [Example 8, N-((7-Benzyloxy-1-chloro-4-hydroxyisoquinolin-3-yl)carbonyl)glycine]
660	CC(C)Oc1ccc2c(O)c(C(=O)NCC(=O)O)ncc2c1 [Example 15, N-((4-Hydroxy-7-(2-propyloxy)isoquinolin-3-yl)carbonyl)glycine]
2020	CCCCOc1ccc2c(Cl)nc(C(=O)NCC(=O)O)c(O)c2c1 [Example 6, N-(-6-(1-Butyloxy-1-chloro-4-hydroxyisoquinolin-3-yl)carbonyl)glycine]
